From patent US12286442B2, “Methods and materials for increasing transcription factor eb polypeptide levels” (University of Pittsburgh—Of the Commonwealth System of …, priority 2019, dated 2025) come the findings set out here.

The subject of one series is TFEB. The series is described as follows: High content screen measuring TFEB nuclear accumulation (TFEB nuclear/cytosol ratio) in BEAS-2B cells stably expressing TFEB-EGFP. It counts as cell-based, human. Conditions: 18 hours incubation. In short, it runs like this: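 Readout: lowest compound concentration giving a 25% rise in nuclear/cytosol TFEB-GFP ratio, from DAPI-masked nuclear and mask-expanded cytosolic signals. Cells (BEAS-2B, TFEB-EGFP stable, ~2300–2500/well) rested 8 hours, then treated 18 hours with compound serial dilutions in 2% FBS medium before PFA fixation and DAPI staining.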

Another series has as its system BEAS-2B cells. Put plainly: Toxicity: compound concentration needed to induce greater than 50 percent of cell loss. Particulars: 18 hours incubation. It counts as cell-based, human. The procedure, abridged: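 Reported value is the concentration giving greater than 50 percent cell loss, grouped into bins (≥25 μM; between 1 and 25 μM; ≤1 μM as "+++"). Measured by high-content imaging of DAPI-stained BEAS-2B TFEB-EGFP cells fixed after 18 h compound exposure.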

As to `Cn1ccc2cc(Nc3nc(-c4ccncc4)nc4ccccc34)ccc21` [Compound 26], the “efficacy (minimal compound concentration needed to increase TFEB nuclear/cytosol ratio by 25%)” value in the series with TFEB is given as “+++ (“+++” equals ≤1 μM)”. Moreover, in the series with BEAS-2B cells, the “toxicity (compound concentration needed to induce greater than 50 percent of cell loss)” value is listed as “+++ (cell loss of greater than 50 percent at a concentration that equals or is less than 1 μM was represented as “+++.”)”.

On to `NS(=O)(=O)CCCNc1nc(-c2ccncc2)nc2ccccc12` [Compound 174], for which the “efficacy (minimal compound concentration needed to increase TFEB nuclear/cytosol ratio by 25%)” value in the series with TFEB is recorded as “+ (“+” equals >25 μM)”. Besides, the “toxicity (compound concentration needed to induce greater than 50 percent of cell loss)” value in the series on BEAS-2B cells is on record as “+ (cell loss of greater than 50 percent at a concentration that equals or is greater than 25 μM was represented as)”.

As to `c1cnc2nc(-c3ccncc3)nc(Nc3ccc4nc(C5CC5)oc4c3)c2c1` [Compound 391], the “efficacy (minimal compound concentration needed to increase TFEB nuclear/cytosol ratio by 25%)” value with TFEB is on record as “+++ (“+++” equals ≤1 μM)”. Further, the “toxicity (compound concentration needed to induce greater than 50 percent of cell loss)” value in the series on BEAS-2B cells was “+ (cell loss of greater than 50 percent at a concentration that equals or is greater than 25 μM was represented as)”.

With `COc1ccc(-n2c(=O)c3ccc(C(=O)NCCc4ccccc4)cc3n(CC(=O)Nc3ccc(C)cc3)c2=O)cc1` [Compound 222], the “efficacy (minimal compound concentration needed to increase TFEB nuclear/cytosol ratio by 25%)” value with TFEB is “++ (“++” equals between ≤25 μM and >1 μM)”. Further, the “toxicity (compound concentration needed to induce greater than 50 percent of cell loss)” value in the series with BEAS-2B cells was “++ (cell loss of greater than 50 percent at a concentration less than 25 μM and greater than 1 μM was represented as)”.

Turning to `Cc1cccc2c(Nc3ccc4cnsc4c3)nc(-c3ccncc3)nc12` [Compound 380], the “efficacy (minimal compound concentration needed to increase TFEB nuclear/cytosol ratio by 25%)” value in the series on TFEB was “++ (“++” equals between ≤25 μM and >1 μM)”. For the same molecule, the “toxicity (compound concentration needed to induce greater than 50 percent of cell loss)” value with BEAS-2B cells is given as “+ (cell loss of greater than 50 percent at a concentration that equals or is greater than 25 μM was represented as)”.

Regarding `Cc1cccc2c(Nc3ccc4[nH]ccc4c3)nc(-c3ccncc3)nc12` [Compound 117], the “efficacy (minimal compound concentration needed to increase TFEB nuclear/cytosol ratio by 25%)” value with TFEB is “+++ (“+++” equals ≤1 μM)”. For the same molecule, the “toxicity (compound concentration needed to induce greater than 50 percent of cell loss)” value in the series on BEAS-2B cells is “+ (cell loss of greater than 50 percent at a concentration that equals or is greater than 25 μM was represented as)”.

Take `COc1ccc(-n2c(=O)c3ccc(C(=O)NCc4ccc(C)cc4)cc3n(CC(=O)Nc3cc(C)[nH]n3)c2=O)cc1` [Compound 218]: the “efficacy (minimal compound concentration needed to increase TFEB nuclear/cytosol ratio by 25%)” value with TFEB is “+ (“+” equals >25 μM)”. Moreover, the “toxicity (compound concentration needed to induce greater than 50 percent of cell loss)” value in the series with BEAS-2B cells is “+ (cell loss of greater than 50 percent at a concentration that equals or is greater than 25 μM was represented as)”.

For `Cc1c(Nc2nc(-c3ccncc3)nc3ccccc23)ccc2[nH]ccc12` [Compound 61], in the series on TFEB, the “efficacy (minimal compound concentration needed to increase TFEB nuclear/cytosol ratio by 25%)” value is listed as “+++ (“+++” equals ≤1 μM)”. For the same molecule, the “toxicity (compound concentration needed to induce greater than 50 percent of cell loss)” value in the series on BEAS-2B cells is “++ (cell loss of greater than 50 percent at a concentration less than 25 μM and greater than 1 μM was represented as)”.

Regarding `COc1ccc2c(Nc3cc(F)c4[nH]ccc4c3)nc(-c3ccncc3)nc2c1` [Compound 370], the “efficacy (minimal compound concentration needed to increase TFEB nuclear/cytosol ratio by 25%)” value in the series on TFEB is given as “+++ (“+++” equals ≤1 μM)”. Besides, in the series on BEAS-2B cells, the “toxicity (compound concentration needed to induce greater than 50 percent of cell loss)” value was “+ (cell loss of greater than 50 percent at a concentration that equals or is greater than 25 μM was represented as)”.

`N#Cc1nc2ccc(Nc3nc(-c4ccncc4)nc4ccccc34)cc2s1` [Compound 87]: the “efficacy (minimal compound concentration needed to increase TFEB nuclear/cytosol ratio by 25%)” value in the series with TFEB is listed as “+ (“+” equals >25 μM)”. The “toxicity (compound concentration needed to induce greater than 50 percent of cell loss)” value in the series with BEAS-2B cells was “+ (cell loss of greater than 50 percent at a concentration that equals or is greater than 25 μM was represented as)”.

For the molecule `Cc1ccc(Nc2nc(-c3ccc([N+](=O)[O-])cc3)nc3ccccc23)c(C)c1` [Compound 200], in the series on TFEB, the “efficacy (minimal compound concentration needed to increase TFEB nuclear/cytosol ratio by 25%)” value is “++ (“++” equals between ≤25 μM and >1 μM)”. In the series with BEAS-2B cells, the “toxicity (compound concentration needed to induce greater than 50 percent of cell loss)” value was “+ (cell loss of greater than 50 percent at a concentration that equals or is greater than 25 μM was represented as)”.
